The term IC50 denotes the midpoint of a concentration-inhibition curve.

One experiment concerns the target DGKα (Homo sapiens (Human), UniProt P23743). Nature of the experiment: Biochemical DGK IC50 assay, DGKα ADP-Glo assay. Conditions: 7.5 nM enzyme, 140 μM ATP, 80 μM DAG. A digest of the protocol: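 Compounds at final 1.55˜10000 nM or 23.3˜150000 nM were tested against full-length DGKα. Substrate was lipid micelles of DAG and PS resuspended in 25 mM HEPES pH 7.0 with 0.5 mM EDTA and 160 mM octyl β-D-glucopyranoside. ADP formed was detected by ADP-Glo.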
A general note: ADP-Glo turns the ADP formed in a reaction into a luminescent signal.

Another experiment concerns the target DGKζ (Homo sapiens (Human), UniProt Q13574). The experiment can be described thus: Biochemical DGK IC50 assay, DGKζ ADP-Glo assay. Conditions: 0.5 nM enzyme, 140 μM ATP, 80 μM DAG; read-out: DGKζ ADP-Glo assay IC50. A digest of the protocol: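 ADP formation measured by ADP-Glo luminescence, with test compounds at final 1.55–10000 nM or 23.3–150000 nM. Enzyme: purified full-length human DGKζ from Sf9 insect cells; substrate: DAG/PS micelles in 25 mM HEPES pH 7.0, 0.5 mM EDTA, octyl glucoside.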

DGKα, sequence (P23743 whole entry): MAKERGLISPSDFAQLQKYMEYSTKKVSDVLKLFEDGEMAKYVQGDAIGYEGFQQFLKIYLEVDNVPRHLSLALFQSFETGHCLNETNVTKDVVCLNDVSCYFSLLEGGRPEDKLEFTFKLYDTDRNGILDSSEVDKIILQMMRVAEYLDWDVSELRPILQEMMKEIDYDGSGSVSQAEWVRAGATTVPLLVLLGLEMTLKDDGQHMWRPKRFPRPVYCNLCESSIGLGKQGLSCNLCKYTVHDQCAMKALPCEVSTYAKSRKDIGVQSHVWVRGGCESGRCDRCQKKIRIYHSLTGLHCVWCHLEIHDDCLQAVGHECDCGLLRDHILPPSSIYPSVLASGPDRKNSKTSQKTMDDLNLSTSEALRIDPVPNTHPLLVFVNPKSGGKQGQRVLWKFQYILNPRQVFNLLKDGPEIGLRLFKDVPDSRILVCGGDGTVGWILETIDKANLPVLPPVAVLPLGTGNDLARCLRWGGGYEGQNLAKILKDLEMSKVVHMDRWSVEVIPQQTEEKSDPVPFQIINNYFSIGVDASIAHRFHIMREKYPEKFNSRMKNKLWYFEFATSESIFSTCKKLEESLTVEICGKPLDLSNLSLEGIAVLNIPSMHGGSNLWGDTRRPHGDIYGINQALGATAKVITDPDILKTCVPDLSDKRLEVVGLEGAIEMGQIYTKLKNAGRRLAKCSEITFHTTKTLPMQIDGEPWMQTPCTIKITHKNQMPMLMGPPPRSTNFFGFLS
DGKζ, sequence (Q13574 other isoform, or with tags, fused parts or gaps): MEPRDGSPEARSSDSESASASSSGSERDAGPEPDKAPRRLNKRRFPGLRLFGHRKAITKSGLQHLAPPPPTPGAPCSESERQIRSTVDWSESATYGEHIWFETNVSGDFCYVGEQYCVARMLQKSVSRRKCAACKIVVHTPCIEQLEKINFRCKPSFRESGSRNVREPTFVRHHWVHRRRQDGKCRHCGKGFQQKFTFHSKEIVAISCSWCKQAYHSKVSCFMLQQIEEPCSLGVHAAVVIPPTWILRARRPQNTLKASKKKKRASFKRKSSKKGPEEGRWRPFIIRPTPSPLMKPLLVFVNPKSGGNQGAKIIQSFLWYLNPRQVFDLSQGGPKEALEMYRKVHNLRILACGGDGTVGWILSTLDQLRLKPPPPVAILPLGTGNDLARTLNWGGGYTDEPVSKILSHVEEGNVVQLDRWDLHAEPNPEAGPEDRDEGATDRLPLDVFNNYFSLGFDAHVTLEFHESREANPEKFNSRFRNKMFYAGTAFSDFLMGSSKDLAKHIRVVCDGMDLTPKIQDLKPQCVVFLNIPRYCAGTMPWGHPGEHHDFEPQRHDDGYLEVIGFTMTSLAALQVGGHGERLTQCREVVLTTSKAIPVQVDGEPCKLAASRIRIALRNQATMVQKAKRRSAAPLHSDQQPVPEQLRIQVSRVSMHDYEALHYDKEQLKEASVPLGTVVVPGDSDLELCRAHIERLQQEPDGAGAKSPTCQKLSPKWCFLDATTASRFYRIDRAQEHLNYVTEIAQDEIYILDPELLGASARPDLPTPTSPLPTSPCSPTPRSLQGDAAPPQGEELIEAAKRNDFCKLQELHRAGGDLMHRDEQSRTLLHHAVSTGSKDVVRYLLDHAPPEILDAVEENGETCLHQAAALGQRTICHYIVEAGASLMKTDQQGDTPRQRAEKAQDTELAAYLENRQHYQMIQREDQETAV

In the case of `CC[C@H]1CN(C(C)c2ccc(Cl)cc2C(F)(F)F)[C@H](CC)CN1c1cc(=O)n(C)c2cn(CC#N)nc12` (some centres unmarked) [Compound A277], the IC50 against DGKα was above 10 µM; on DGKζ, 2.11 µM.
The corresponding values for `Cc1cnc2ccc([C@H](C)N3C[C@H](C)N(c4c(C#N)c(=O)n(C)c5cn(CC#N)nc45)C[C@H]3C)cc2n1` [Compound A318, 2-(cyanomethyl)-7-((2S,5R)-2,5-dimethyl-4-((S)-1-(3-methylquinoxalin-6-yl)ethyl)piperazin-1-yl)-4-methyl-5-oxo-4,5-dihydro-2H-pyrazolo[4,3-b]pyridine-6-carbonitrile] are 6.49 µM and 0.015 µM.
The matching figures for `COCC[C@H]1CN(C(C)c2ccc3nccnc3c2)[C@H](C)CN1c1cc(=O)n(C)c2cn(CC#N)nc12` (stereo partly drawn) [Compound A164, 2-(7-((2S,5R)-2-(2-methoxyethyl)-5-methyl-4-(1-(quinoxalin-6-yl)ethyl)piperazin-1-yl)-4-methyl-5-oxo-4,5-dihydro-2H-pyrazolo[4,3-b]pyridin-2-yl)acetonitrile]: 8.97 µM and 0.072 µM.
The corresponding values for `CC#CCn1cc2c(n1)c(N1C[C@@H](CC)N(C(C)c3cc4ccccc4cn3)C[C@@H]1C)cc(=O)n2C` (stereo partly drawn) [Compound A393, 2-(but-2-yn-1-yl)-7-((2S,5R)-5-ethyl-4-(1-(isoquinolin-3-yl)ethyl)-2-methylpiperazin-1-yl)-4-methyl-2,4-dihydro-5H-pyrazolo[4,3-b]pyridin-5-one] are 0.108 µM and 0.795 µM.
For `CCC(c1ccc(C2CC2)cc1)N1C[C@H](C)N(c2cc(=O)n(C)c3cn(CC#N)nc23)C[C@H]1C` (some centres unmarked) [Compound A36], the figures for the IC50 against DGKα and on DGKζ were 0.55 µM and 0.97 µM, respectively.
As to `CC[C@H]1CN(C(C)c2ccc(OC(F)(F)F)cc2)[C@H](CC)CN1c1cc(=O)n(C)c2cn(CC#N)nc12` (some centres unmarked) [Compound A122], the results for the IC50 against DGKα and on DGKζ were 0.0105 µM and 0.635 µM, respectively.
Regarding `CC[C@H]1CN(C(C)c2ccc(F)nc2)[C@H](CC)CN1c1cc(=O)n(C)c2cn(CC#N)nc12` (single isomer, unassigned) [Compound A353a], the IC50 turned out to be 0.032 µM at DGKα and 0.19 µM on DGKζ.
On to `CC(c1ccc(F)cc1P(C)(C)=O)N1C[C@H](C)N(c2cc(=O)n(C)c3cn(CC#N)nc23)C[C@H]1C` (some centres unmarked) [Compound A285], for which the IC50 against DGKα and at DGKζ was above 10 µM each time.
Consider `CC[C@H]1CN(C(C)c2cnc3c(n2)CCCC3)[C@H](CC)CN1c1cc(=O)n(C)c2cn(CC#N)nc12` (single isomer, unassigned) [Compound A357a], for which the IC50 worked out at 2.45 µM against DGKα and 2.54 µM at DGKζ.
With `CC[C@H]1CN(C(C)c2cc3cnccc3cn2)[C@H](CC)CN1c1cc(=O)n(C)c2cn(CC#N)nc12` (single isomer, unassigned) [Compound A368b], the IC50 at DGKα was found to be 0.091 µM; on DGKζ, 0.382 µM.
As for `CC[C@H]1CN(C(c2ccc(F)cc2)c2ccc(F)cc2OC)[C@H](CC)CN1c1cc(=O)n(C)c2cn(CC#N)nc12` (some centres unmarked) [Compound A53], the values for the IC50 against DGKα and on DGKζ were 1.2 µM and 0.0078 µM, respectively.
The matching figures for `CC[C@H]1CN(C(C)c2ccc(CN3CCC(F)(F)CC3)nc2)[C@H](CC)CN1c1cc(=O)n(C)c2cn(CC#N)nc12` (single isomer, unassigned) [Compound A381b]: 2.09 µM and 2.33 µM.
The corresponding values for `CC[C@H]1CN(C(C)c2cc(C)ccc2C(F)(F)F)[C@H](CC)CN1c1cc(=O)n(C)c2cn(CC#N)nc12` (some centres unmarked) [Compound A114] are above 10 µM and 6.6 µM.
As to `COC[C@@H]1CN(c2cc(=O)n(C)c3cn(CC#N)nc23)[C@@H](C)CN1C(C)c1ccc2nccnc2c1` (stereo partly drawn) [Compound A100, 2-(7-((2S,5S)-5-(methoxymethyl)-2-methyl-4-(1-(quinoxalin-6-yl)ethyl)piperazin-1-yl)-4-methyl-5-oxo-4,5-dihydro-2H-pyrazolo[4,3-b]pyridin-2-yl)acetonitrile], the IC50 against DGKα turned out to be 3.78 µM; at DGKζ, 0.2 µM.
As for `CC(c1ccc2ncnn2c1)N1C[C@H](C)N(c2cc(=O)n(C)c3cn(CC#N)nc23)C[C@H]1C` (some centres unmarked) [Compound A34], the IC50 stood at 8.3 µM on DGKα and 5.8 µM at DGKζ.
With `CC(c1ccc2ncc(CO)nc2c1)N1C[C@H](C)N(c2cc(=O)n(C)c3cn(CC#N)nc23)C[C@H]1C` (stereo partly drawn) [Compound A309, 2-(7-((2S,5R)-4-(1-(3-(hydroxymethyl)quinoxalin-6-yl)ethyl)-2,5-dimethylpiperazin-1-yl)-4-methyl-5-oxo-4,5-dihydro-2H-pyrazolo[4,3-b]pyridin-2-yl)acetonitrile], the half-maximal inhibitory concentration (IC50) turned out to be 108 µM against DGKα and 0.88 µM at DGKζ.
The matching figures for `CC[C@H]1CN(C(C)c2ccc(F)cc2COC)[C@H](CC)CN1c1cc(=O)n(C)c2cn(CC#N)nc12` (stereo partly drawn) [Compound A79, 2-(7-((2S,5R)-2,5-diethyl-4-(1-(4-fluoro-2-(methoxymethyl)phenyl)ethyl)piperazin-1-yl)-4-methyl-5-oxo-4,5-dihydro-2H-pyrazolo[4,3-b]pyridin-2-yl)acetonitrile]: 2.48 µM and 0.115 µM.
Consider `CC(c1ccc2nccnc2c1)N1C[C@H](CO)N(c2cc(=O)n(C)c3cn(CC#N)nc23)C[C@H]1C` (stereo partly drawn) [Compound A101, 2-(7-((2R,5R)-2-(hydroxymethyl)-5-methyl-4-(1-(quinoxalin-6-yl)ethyl)piperazin-1-yl)-4-methyl-5-oxo-4,5-dihydro-2H-pyrazolo[4,3-b]pyridin-2-yl)acetonitrile], for which the 50% inhibitory concentration (IC50) at DGKα is above 10 µM; at DGKζ, 0.707 µM.
As for `CCC(c1ccc(F)cc1C(F)(F)F)N1C[C@H](C)N(c2cc(=O)n(C)c3cn(CC#N)nc23)C[C@H]1C` (some centres unmarked) [Compound A256], the IC50 is above 10 µM at DGKα and 0.315 µM at DGKζ.
Take `CC[C@H]1CN(C(C)c2ccc(F)cc2F)[C@H](CC)CN1c1cc(=O)n(C)c2cn(CC#N)nc12` (single isomer, unassigned) [Compound A132b]: the IC50 was found to be 0.33 µM against DGKα and 1.78 µM on DGKζ.
Take `CC(c1ccc2ncc(CO)nc2c1)N1C[C@H](C)N(c2cc(=O)n(C)c3cn(CC#N)nc23)C[C@H]1C` (single isomer, unassigned) [Compound A309b]: the IC50 at DGKα amounted to 87 µM; on DGKζ, 0.369 µM.
The corresponding values for `CC(c1ccc2c(c1)OC(C)(C)CO2)N1C[C@H](C)N(c2cc(=O)n(C)c3cn(CC#N)nc23)C[C@H]1C` (single isomer, unassigned) [Compound A46f] are 59.6 µM and 2.14 µM.
On to `C=C(C)n1cc2c(n1)c(N1C[C@@H](C)N(Cc3ccc(OC(F)(F)F)cc3)C[C@@H]1C)cc(=O)n2C` [Compound A26, 7-((2S,5R)-2,5-dimethyl-4-(4-(trifluoromethoxy)benzyl)piperazin-1-yl)-4-methyl-2-(prop-1-en-2-yl)-2,4-dihydro-5H-pyrazolo[4,3-b]pyridin-5-one], for which the IC50 stood at 0.0043 µM on DGKα and 98 µM at DGKζ.
`CC[C@@H]1CN(c2cc(=O)n(C)c3cn(CC#N)nc23)[C@@H](CC)CN1Cc1ccc(F)cc1` [Compound A70]: the IC50 on DGKα is 0.038 µM; on DGKζ it was 0.64 µM.
The matching figures for `CC[C@H]1CN(C(C)c2ccc(OC3CCOCC3)cc2)[C@H](CC)CN1c1cc(=O)n(C)c2cn(CC#N)nc12` (some centres unmarked) [Compound A380]: 0.161 µM and 0.667 µM.

These data come from patent publication US20240270751A1, “Pyrazolopyridinone Compounds” (BeiGene Ltd., priority 2021, published 2024).
